Data reported in patent publication US8822430B2 (Gilead Sciences, Inc., priority 2009, dated 2014).

System: HCV 1b RLuc cells (dicistronic genotype 1b Con1 replicon)
Assay: Renilla luciferase (RLuc)-based HCV replicon reporter assay
Type: cell-based, HCV genotype 1b
Settings: HCV 1b RLuc replicon, 72 hours; read-out: Activity (antiviral potency [EC50])
Procedure: Antiviral potency (EC50) was determined using a Renilla luciferase (RLuc)-based HCV replicon reporter assay. To perform the assay, HCV 1b RLuc cells (harboring a dicistronic genotype 1b Con1 replicon that encodes a RLuc reporter), or HCV 1a RLuc cells (harboring a dicistronic genotype 1a H77 replicon that encodes a RLuc reporter), were dispensed into 384-well plates. Compounds were re-suspended in DMSO at a concentration of 10 mM and serially diluted in DMSO using an automated pipeting instrument. Serially diluted compounds were mixed with cell culture media and added to the seeded cells. DMSO was used as a negative (solvent) control, and the protease inhibitor ITMN-191 was included at a concentration >100×EC50 as a positive control. 72 hours later, cells were lysed and Renilla luciferase activity quantified as recommended by the manufacturer (Promega-Madison, Wis.). Non-linear regression was performed to calculate EC50 values.
Biological data (antiviral potency [EC50] was determined using a Renilla luciferase (RLuc)-based HCV replicon reporter assay—HCV 1b RLuc) for representative compounds of the invention is provided in the following table. These compounds can be prepared using procedures similar to those described above.

SMILES | EC50 [pM]
COC(=O)N[C@H](C(=O)N1CCC[C@H]1c1ncc(-c2ccc(-c3ccc(-c4cnc([C@@H]5CSC(c6ccncc6)N5C(=O)OCc5ccccc5)[nH]4)cc3)cc2)[nH]1)C(C)C (single isomer, unassigned) [drawing 1301] | 76.5

Same assay, conditions: Hepatitis C virus, 72 h, HCV 1b RLuc replicon, 72 hours; read-out: Activity (antiviral potency [EC50])

SMILES | EC50 [pM]
COC(=O)N[C@H](C(=O)N1CCC[C@H]1c1ncc(-c2ccc(-c3ccc4cc(-c5cnc([C@@H]6C[C@H](C#N)CN6C(=O)[C@H](NC(=O)OC)c6ccccc6)[nH]5)ccc4c3)cc2)[nH]1)C(C)C | 9.7
COC(=O)NC(C(=O)N1CCC[C@H]1c1ncc(-c2ccc3cc(-c4ccc(-c5cnc([C@@H]6CCCN6C(=O)[C@@H](NC(=O)OC)C(C)C)[nH]5)cc4)ccc3c2)[nH]1)c1ccccc1 (some centres unmarked) | 9.2
COC(=O)N[C@H](C(=O)N1CCC[C@H]1c1ncc(-c2ccc3cc(-c4ccc(-c5cnc([C@@H]6CCCN6C(=O)[C@H](NC(=O)OC)c6ccsc6)[nH]5)cc4)ccc3c2)[nH]1)C(C)C | 15.7
COC(=O)N[C@H](C(=O)N1CCC[C@H]1c1ncc(-c2ccc(-c3ccc(-c4cnc([C@@H]5CC[C@H]6CN(C(=O)OC)CC(=O)N65)[nH]4)cc3)cc2)[nH]1)C(C)C | 66.4
COC(=O)N[C@H](C(=O)N1CCC[C@H]1c1ncc(C#Cc2ccc(C#Cc3cnc([C@@H]4CCCN4C(=O)[C@@H](NC(=O)OC)C(C)C)[nH]3)cc2)[nH]1)C(C)C | 47.4
COC(=O)N[C@H](C(=O)N1CCC[C@H]1c1ncc(-c2ccc(-c3ccc4cc(-c5cnc([C@@H]6CCCN6C(=O)[C@@H](NC(=O)OC)C(C)C)[nH]5)ccc4c3)cc2)[nH]1)c1ccsc1 | 90.6
COC(=O)N[C@H](C(=O)N1CCC[C@H]1c1ncc(C#Cc2ccc(-c3ccc(-c4cnc([C@@H]5CCCN5C(=O)[C@@H](NC(=O)OC)C(C)C)[nH]4)cc3)cc2)[nH]1)C(C)C | 11.5
COC(=O)N[C@H](C(=O)N1CCC[C@H]1c1ncc(-c2ccc(-c3ccc(-c4cnc([C@@H]5CN(C(=O)OC)CN5C(=O)[C@@H](NC(=O)OC)C(C)C)[nH]4)cc3)cc2)[nH]1)C(C)C | 30
COC(=O)N[C@H](C(=O)N1CCC[C@H]1c1ncc(C#Cc2cccc3c(C#Cc4cnc([C@@H]5CCCN5C(=O)[C@@H](NC(=O)OC)C(C)C)[nH]4)cccc23)[nH]1)C(C)C | 14.2
COC(=O)N[C@H](C(=O)N1CCC[C@H]1c1ncc(-c2ccc(C#Cc3ccc(-c4cnc([C@@H]5CN(C(=O)OC(C)(C)C)CCN5C(=O)[C@@H](NC(=O)OC)C(C)C)[nH]4)cc3)cc2)[nH]1)C(C)C | 4730
COC(=O)N[C@H](C(=O)N1CCC[C@H]1c1ncc(-c2ccc3cc(-c4ccc(-c5cnc([C@@H]6CCCN6C(=O)[C@@H](OC(=O)N(C)C)c6ccccc6)[nH]5)cc4)ccc3c2)[nH]1)C(C)C | 79.4
COC(=O)N[C@H](C(=O)N1CCC[C@H]1c1ncc(-c2ccc(C#Cc3ccc(-c4cnc([C@@H]5CN(CC(F)(F)F)CCN5C(=O)[C@@H](NC(=O)OC)C(C)C)[nH]4)cc3)cc2)[nH]1)C(C)C | 1510
COC(=O)N[C@H](C(=O)N1CCC[C@H]1c1ncc(-c2ccc3c(c2)CCc2cc(-c4cnc([C@@H]5CCCN5C(=O)[C@@H](NC(=O)OC)C(C)C)[nH]4)ccc2-3)[nH]1)C(C)C | 9.9
COC(=O)N[C@H](C(=O)N1CCC[C@H]1C1=NC(=O)C(C)(c2ccc(-c3ccc(-c4cnc([C@@H]5CCCN5C(=O)[C@@H](NC(=O)OC)C(C)C)[nH]4)cc3)cc2)N1)C(C)C (some centres unmarked) | > 44400
COC(=O)N[C@H](C(=O)N1CCC[C@H]1c1ncc(-c2ccc(-c3ccc(-c4cnc(CN5CCC[C@@H](NC(=O)OC(C)(C)C)C5=O)[nH]4)cc3)cc2)[nH]1)C(C)C | 34.5
COC(=O)N[C@H](C(=O)N1CCC[C@H]1c1ncc(-c2ccc(C#Cc3ccc(-c4cnc([C@@H]5[C@H]6CC[C@H](C6)N5C(=O)[C@@H](NC(=O)OC)C(C)C)[nH]4)cc3)cc2)[nH]1)C(C)C | 73
COC(=O)N[C@H](C(=O)N1CCC[C@H]1c1ncc(-c2ccc3c(c2)oc2cc(-c4cnc([C@@H]5[C@H]6CC[C@H](C6)N5C(=O)[C@@H](NC(=O)OC)C(C)C)[nH]4)ccc23)[nH]1)C(C)C | 8.2
COC(=O)N[C@H](C(=O)N1CCC[C@H]1c1ncc(-c2ccc3c(c2)COc2cc(-c4ccc5nc([C@@H]6[C@H]7CC[C@H](C7)N6C(=O)[C@@H](NC(=O)OC)C(C)C)[nH]c5c4)ccc2-3)[nH]1)C(C)C | 7
COC(=O)N[C@H](C(=O)N1CCC[C@H]1c1ncc(-c2ccc(-c3ccc(-c4cnc([C@@H]5CCCN5C(=O)[C@@H](NC(=O)OC)C(C)C)[nH]4)cc3C#N)cc2)[nH]1)C(C)C | 15.8
COC(=O)N[C@H](C(=O)N[C@@H](CO)c1ncc(-c2ccc(-c3ccc(-c4cnc([C@@H]5CCCN5C(=O)[C@@H](NC(=O)OC)C(C)C)[nH]4)cc3)cc2)[nH]1)C(C)C | 77.5

SMILES | EC50 [pM]
COC(=O)N[C@@H](C)C(=O)N1CCC[C@H]1c1ncc(-c2ccc3c(c2)CCc2cc(-c4cnc([C@@H]5[C@H]6CC[C@H](C6)N5C(=O)[C@H](C)NC(=O)OC)[nH]4)ccc2-3)[nH]1 | 36.8
COC(=O)N[C@H](C(=O)N1CC2(CC2)C[C@H]1c1ncc(-c2ccc3cc(-c4ccc(-c5cnc([C@@H]6[C@H]7CC[C@H](C7)N6C(=O)[C@@H](NC(=O)OC)C(C)(C)C)[nH]5)cc4)ccc3c2)[nH]1)C(C)C | 9
COC(=O)N[C@H](C(=O)N1CCC[C@H]1c1ncc(-c2ccc3cc(C#Cc4ccc5nc([C@@H]6[C@H]7CC[C@H](C7)N6C(=O)[C@@H](NC(=O)OC)C(C)C)[nH]c5c4)ccc3c2)[nH]1)C(C)C | 19.5
COC(=O)N[C@H](C(=O)N1CCC[C@H]1c1ncc(-c2ccc3cc(-c4ccc(-c5cnc([C@@H]6CCCN6C(=O)[C@@H](NC(=O)OC)C6CCCCC6)[nH]5)cc4)ccc3c2)[nH]1)C(C)C | 9.2
COC(=O)N[C@H](C(=O)N1CCC[C@H]1c1ncc(-c2ccc3cc(-c4ccc(-c5cnc([C@@H]6CCCN6C(=O)[C@H](NC(=O)OC)c6ccccc6OC)[nH]5)cc4)ccc3c2)[nH]1)C(C)C | 7.3
COC(=O)N[C@@H](CCC(F)(F)F)C(=O)N1CCC[C@H]1c1ncc(-c2ccc(-c3ccc(-c4cnc([C@@H]5CCCN5C(=O)[C@@H](NC(=O)OC)C(C)C)[nH]4)cc3)cc2)[nH]1 | 40
COC(=O)N[C@H](C(=O)N1C[C@@H](C#N)C[C@H]1c1ncc(-c2ccc3cc(-c4ccc(-c5cnc([C@@H]6CC7(CC7)CN6C(=O)[C@@H](NC(=O)OC)C(C)C)[nH]5)cc4)ccc3c2)[nH]1)C(C)C | 16.9
COC(=O)N[C@H](C(=O)N1CCC[C@H]1c1ncc(-c2ccc(-c3ccc4cc(-c5ccc6nc([C@@H]7[C@H]8CC[C@H](C8)N7C(=O)[C@@H](NC(=O)OC)C(C)C)[nH]c6c5)ccc4c3)cc2)[nH]1)C(C)C | 89.8
COC(=O)N[C@H](C(=O)N1CC2(CC2)C[C@H]1c1ncc(-c2ccc3c(c2)C(F)(F)c2cc(-c4c[nH]c([C@@H]5CCCN5C(=O)[C@@H](NC(=O)OC)C5CCOCC5)n4)ccc2-3)[nH]1)C(C)C | 61.4
COC(=O)N[C@H](C(=O)N1CCC[C@H]1c1ncc(-c2ccc3cc(-c4ccc(-c5cnc([C@@H]6CC(=O)CN6C(=O)[C@@H](NC(=O)OC)C(C)C)[nH]5)cc4)ccc3c2)[nH]1)C(C)C | 10.3
COC(=O)N[C@@H](CCS(C)(=O)=O)C(=O)N1[C@@H]2CC[C@@H](C2)[C@H]1c1nc2ccc(-c3ccc4c(c3)C(F)(F)c3cc(-c5cnc([C@@H]6CC7(CC7)CN6C(=O)[C@@H](NC(=O)OC)C(C)C)[nH]5)ccc3-4)cc2[nH]1 | 21.8
COC(=O)N[C@H](C(=O)N1CCC[C@H]1c1ncc(-c2ccc(-c3ccc(-c4cnc(CN5CCC[C@@H](NC(=O)OC)C5=O)[nH]4)cc3)cc2)[nH]1)C(C)C | 240
COC(=O)N[C@H](C(=O)N1CC2(CC2)C[C@H]1c1ncc(-c2ccc3cc(-c4ccc(-c5cnc([C@@H]6[C@H]7CC[C@H](C7)N6C(=O)[C@H](NC(=O)OC)c6ccccc6)[nH]5)cc4)ccc3c2)[nH]1)C(C)C | 26.1
COC(=O)N[C@@H](CCS(C)(=O)=O)C(=O)N1C[C@@H](C#N)C[C@H]1c1ncc(-c2ccc(-c3ccc4cc(-c5cnc([C@@H]6CC7(CC7)CN6C(=O)[C@@H](NC(=O)OC)C(C)C)[nH]5)ccc4c3)cc2)[nH]1 | 256
COC(=O)N[C@H](C(=O)N1CCC[C@H]1C(=O)Nc1ccc(-c2ccc(-c3cnc([C@@H]4CCCN4C(=O)[C@@H](NC(=O)OC)C(C)C)[nH]3)cc2)cc1)C(C)C | 124
COC(=O)N[C@H](C(=O)N1CCC[C@H]1c1ncc(-c2ccc(-c3ccc(-c4cnc([C@@H]5CN(C(=O)OC(C)(C)C)CN5C(=O)[C@@H](NC(=O)OC)C(C)C)[nH]4)cc3)cc2)[nH]1)C(C)C | 5
COCCO[C@H]1C[C@@H](c2ncc(-c3ccc(-c4ccc5cc(-c6cnc([C@@H]7CC8(CC8)CN7C(=O)[C@@H](NC(=O)OC)C(C)C)[nH]6)ccc5c4)cc3)[nH]2)N(C(=O)[C@@H](NC(=O)OC)C(C)C)C1 | 14.6
COC(=O)N[C@H](C(=O)N1CCC[C@H]1c1ncc(-c2ccc(-c3ccc(-c4ccc5nc([C@@H]6CCN6C(=O)[C@@H](NC(=O)OC)C(C)C)[nH]c5c4)cc3)cc2)[nH]1)C(C)C | 28.2
COC(=O)N[C@H](C(=O)N1CCC[C@H]1c1ncc(-c2ccc3c(c2)C(F)(F)c2cc(-c4ccc5nc([C@@H]6CCCN6C(=O)[C@@H](NC(=O)OC)C(C)C)[nH]c5c4)ccc2-3)[nH]1)C(C)C | < 2.3
COC(=O)NC(C(=O)N1CCC[C@H]1c1ncc(-c2cc3sc(-c4ccc5nc([C@@H]6CCCN6C(=O)[C@@H](NC(=O)OC)C(C)C)[nH]c5c4)cc3s2)[nH]1)C(C)C (some centres unmarked) | 22.9
